Experimental findings from patent publication US12077503B2, “Substituted cyclic amides and their use as herbicides” (FMC CORPORATION, priority 2015, dated 2024) are described below.

Common to all, as to format: in vivo
Experiment [1] relates to sedge, umbrella (small-flower umbrella sedge, Cyperus difformis). Briefly: Test B flooded paddy test. The conditions noted are these: Cyperus difformis, Flood, 250 g ai/ha. A digest of the protocol: (§1)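 Flooding to 3 cm over soil accompanied treatment, which consisted of adding compound to the standing water around 2-leaf plants; depth was then maintained. Visual assessment versus controls followed at 13 to 15 d (scale 0–100, 0 meaning no effect).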

For experiment [2], the system named is barnyardgrass (Echinochloa crus-galli). Briefly: Test B flooded paddy test. The conditions noted are these: Echinochloa crus-galli, Flood, 250 g ai/ha. A digest of the protocol:
as §1

The test system of experiment [3] is ducksalad (Heteranthera limosa). The experiment is described as follows: Test B flooded paddy test. Conditions: Heteranthera limosa, Flood, 250 g ai/ha. In outline:
as §1

Experiment [4] concerns rice (Oryra sativa). The experiment is described as follows: Test B flooded paddy test. The conditions noted are these: Oryza sativa, Flood, 250 g ai/ha. A digest of the protocol:
as §1

The subject of experiment [5] is blackgrass (Alopecurus myosuroides). The experiment is described as follows: Test A postemergence. Conditions: Alopecurus myosuroides, post-emergence, 240 h; for pest or weed control at 125 g/ha: 125 g ai/ha. A digest of the protocol:
(§2)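 In a loam soil and sand blend, planted seeds got a preemergence directed soil spray, and young plants at the one- to two-leaf stage, 2–10 cm high, got a postemergence application; ~10 d greenhouse hold; injury rated visually, 0 = none, 100 = complete control.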

In experiment [6] the test system is wheat (Triticum aestivum). Briefly: Test A postemergence. Conditions: Triticum aestivum, post-emergence, 240 h; for plant injury at 125 g/ha: 125 g ai/ha. In outline:
as §2

Experiment [7] concerns ryegrass, Italian (Italian ryegrass, Lolium multiflorum). Briefly: Test A postemergence. Conditions: Lolium multiflorum, post-emergence, 240 h; for pest or weed control at 125 g/ha: 125 g ai/ha. In outline: as §2
Experiment [8] concerns barnyardgrass (Echinochloa crus-galli). The experiment is described as follows: Test A postemergence. Conditions: Echinochloa crus-galli, post-emergence, 240 h; for pest or weed control at 125 g/ha: 125 g ai/ha. In outline:
as §2

The subject of experiment [9] is giant foxtail (Setaria faberii). The experiment is described as follows: Test A postemergence. The conditions noted are these: Setaria faberi, post-emergence, 240 h; for pest or weed control at 125 g/ha: 125 g ai/ha. In outline: as §2
Experiment [10] has as its system corn (Zea mays). The experiment is described as follows: Test A postemergence. Conditions: Zea mays, post-emergence, 240 h. A digest of the protocol:
as §2

In experiment [11] the test system is ragweed (common ragweed, Ambrosia elatior). The experiment is described as follows: Test A postemergence. Conditions: Ambrosia artemisiifolia, post-emergence, 240 h; for pest or weed control at 125 g/ha: 125 g ai/ha. In outline: as §2
Experiment [12] deals with pigweed (Amaranthus retroflexus). The experiment is described as follows: Test A postemergence. The conditions noted are these: Amaranthus retroflexus, post-emergence, 240 h; for pest or weed control at 125 g/ha: 125 g ai/ha. In outline: as §2
The subject of experiment [13] is Galium (catchweed bedstraw, Galium aparine). The experiment is described as follows: Test A postemergence. The conditions noted are these: Galium, post-emergence, 240 h; for pest or weed control at 125 g/ha: 125 g ai/ha. In outline: as §2
Experiment [14] relates to Kochia (Kochia scoparia). Briefly: Test A postemergence. The conditions noted are these: Bassia scoparia, post-emergence, 240 h; for pest or weed control at 125 g/ha: 125 g ai/ha. A digest of the protocol: as §2

Structures are written as SMILES. Where two headings read alike, the source gives them in different places.

On to `Cc1ccc([C@H]2CNC(=S)[C@@H]2C(=O)Nc2cccc(F)c2F)cc1C` [Compound 765], for which the pest or weed control at 250 g/ha was determined as 0% in [1] (scale of 0 to 100 where 0 is no effect and 100 is complete control, read-out: Sedge, Umbrella plant response rating); 40% in [2] (scale of 0 to 100 where 0 is no effect and 100 is complete control, read-out: Barnyardgrass plant response rating); 100% in experiment [3] (scale of 0 to 100 where 0 is no effect and 100 is complete control, read-out: Ducksalad plant response rating); 20% in [4] (scale of 0 to 100 where 0 is no effect and 100 is complete control, read-out: Rice plant response rating). In addition, the pest or weed control at 125 g/ha in experiment [5] (postemergence, visual injury after approximately 10 d, 0 to 100 scale (0 no effect, 100 complete control), read-out: Plant response rating, Blackgrass) stood at 0%; in experiment [7] (postemergence, visual injury after approximately 10 d, 0 to 100 scale (0 no effect, 100 complete control), read-out: Plant response rating, Ryegrass, Italian), 40%; in experiment [8] (postemergence, visual injury after approximately 10 d, 0 to 100 scale (0 no effect, 100 complete control), read-out: Plant response rating, Barnyardgrass), 70%; in experiment [9] (postemergence, visual injury after approximately 10 d, 0 to 100 scale (0 no effect, 100 complete control), read-out: Plant response rating, Foxtail, Giant), 0%; in experiment [11] (postemergence, visual injury after approximately 10 d, 0 to 100 scale (0 no effect, 100 complete control), read-out: Plant response rating, Ragweed), 0%; in [12] (postemergence, visual injury after approximately 10 d, 0 to 100 scale (0 no effect, 100 complete control), read-out: Plant response rating, Pigweed), 0%. Besides, the pest or weed control at 125 g/ha amounted to 0% in experiment [13] (postemergence, visual injury after approximately 10 d, 0 to 100 scale (0 no effect, 100 complete control), read-out: Plant response rating, Galium) and 0% in [14] (postemergence, visual injury after approximately 10 d, 0 to 100 scale (0 no effect, 100 complete control), read-out: Plant response rating, Kochia). The plant injury at 125 g/ha in [6] (postemergence, visual injury after approximately 10 d, 0 to 100 scale (0 no effect, 100 complete control), read-out: Plant response rating, Wheat) stood at 0%. The same compound came in with a Corn plant response rating (crop injury, 0 = no effect, 100 = complete kill) at 125 g/ha in experiment [10] (125 g ai/ha, postemergence, visual injury after approximately 10 d, 0 to 100 scale (0 no effect, 100 complete control)) of 0%.

Regarding `CN1CC[C@H](c2cccc(C(F)(F)F)c2)[C@@H](C(=O)Nc2ccccc2F)C1=O` [Compound 1331], the pest or weed control at 250 g/ha in experiment [1] (360 h, visually evaluated after 13 to 15 d, read-out: Plant response rating, Sedge, Umbrella (0 to 100 scale where 0 is no effect and 100 is complete control)) is 0%; in experiment [2] (360 h, visually evaluated after 13 to 15 d, read-out: Plant response rating, Barnyardgrass (0 to 100 scale where 0 is no effect and 100 is complete control)), 70%; in experiment [3] (360 h, visually evaluated after 13 to 15 d, read-out: Plant response rating, Ducksalad (0 to 100 scale where 0 is no effect and 100 is complete control)), 20%; in experiment [4] (360 h, visually evaluated after 13 to 15 d, read-out: Plant response rating, Rice (0 to 100 scale where 0 is no effect and 100 is complete control)), 0%. Also, the pest or weed control at 125 g/ha was determined as 20% in [5] (Postemergence, visual rating about 10 d after treatment, read-out: Blackgrass plant response rating (0 to 100 scale)); 0% in [7] (Postemergence, visual rating about 10 d after treatment, read-out: Ryegrass, Italian plant response rating (0 to 100 scale)); 90% in experiment [8] (Postemergence, visual rating about 10 d after treatment, read-out: Barnyardgrass plant response rating (0 to 100 scale, 0 no effect, 100 complete control)); 90% in experiment [9] (Postemergence, visual rating about 10 d after treatment, read-out: Foxtail, Giant plant response rating (0 to 100 scale)); 0% in experiment [11] (Postemergence, visual rating about 10 d after treatment, read-out: Ragweed plant response rating (0 to 100 scale)); 0% in experiment [12] (Postemergence, visual rating about 10 d after treatment, read-out: Pigweed plant response rating (0 to 100 scale)). Also, the pest or weed control at 125 g/ha in experiment [13] (Postemergence, visual rating about 10 d after treatment, read-out: Galium plant response rating (0 to 100 scale)) is 0%; in experiment [14] (Postemergence, visual rating about 10 d after treatment, read-out: Kochia plant response rating (0 to 100 scale)) it was 0%. Further, the pest or weed control at 500 g/ha amounted to 50% in experiment [5] (Postemergence, 500 g ai/ha, visual injury, 0 to 100 scale (0 no effect, 100 complete control), approx. 10 d, read-out: Plant response rating, Blackgrass); 0% in [7] (Postemergence, 500 g ai/ha, visual injury, 0 to 100 scale (0 no effect, 100 complete control), approx. 10 d, read-out: Plant response rating, Ryegrass, Italian); 90% in experiment [8] (Postemergence, 500 g ai/ha, visual injury, 0 to 100 scale (0 no effect, 100 complete control), approx. 10 d, read-out: Plant response rating, Barnyardgrass); 90% in experiment [9] (Postemergence, 500 g ai/ha, visual injury, 0 to 100 scale (0 no effect, 100 complete control), approx. 10 d, read-out: Plant response rating, Foxtail, Giant); 0% in experiment [11] (Postemergence, 500 g ai/ha, visual injury, 0 to 100 scale (0 no effect, 100 complete control), approx. 10 d, read-out: Plant response rating, Ragweed); 0% in experiment [12] (Postemergence, 500 g ai/ha, visual injury, 0 to 100 scale (0 no effect, 100 complete control), approx. 10 d, read-out: Plant response rating, Pigweed). Further, the pest or weed control at 500 g/ha is 0% in [13] (Postemergence, 500 g ai/ha, visual injury, 0 to 100 scale (0 no effect, 100 complete control), approx. 10 d, read-out: Plant response rating, Galium) and 0% in experiment [14] (Postemergence, 500 g ai/ha, visual injury, 0 to 100 scale (0 no effect, 100 complete control), approx. 10 d, read-out: Plant response rating, Kochia). Also, the plant injury at 125 g/ha in experiment [6] (Postemergence, visual rating about 10 d after treatment, read-out: Wheat plant response rating (0 to 100 scale)) stood at 0%; in experiment [10] (125 g ai/ha, Postemergence, visual rating about 10 d after treatment, read-out: Corn plant response rating (0 to 100 scale)), 20%. For the same compound, the plant injury at 500 g/ha in experiment [6] (Postemergence, 500 g ai/ha, visual injury, 0 to 100 scale (0 no effect, 100 complete control), approx. 10 d, read-out: Plant response rating, Wheat) is 50%. In experiment [10] (Postemergence, 500 g ai/ha, visual injury, 0 to 100 scale (0 no effect, 100 complete control), approx. 10 d), the Corn plant response rating (crop injury, 0 = no effect, 100 = complete kill) at 500 g/ha amounted to 70%.
